# Literature values in patent EP1450788B1, “USE OF COUMARIN OR ITS HYDROXY DERIVATIVE FOR THE TREATMENT OF MEDIUM OR SEVERE VASCULAR AND/OR LYMPHATIC EDEMA” (priority 2001, dated 2003).
# Columns and labels:
# hepatic tissue = settings: oral doses of about 200 mg/day
# [1] = test system: lymphoedema of the upper limbs; settings: 90 mg/day versus 135 mg/day; lymphoedema of the upper limbs secondary to surgery and irradiation for breast cancer
"haematic levels, transdermal route relative to oral route (transdermal administration versus oral route) [fold]",Structure (SMILES),haematic levels by the transdermic route (transdermal administration),cytosolytic hepatocytic enzymes in the plasma (biochemical markers of the hepatic damage) (hepatic tissue),clinical efficacy (apparent benefits of the two coumarin dosages) [1]
,"O=c1ccc2ccc(O)cc2o1 [7-hydroxy-coumarin, 7-hydroxycoumarin]",a decrease of the haematic levels,,
10,"O=c1ccc2ccccc2o1 [coumarin, 5,6-benzopyran-2-one]",,high concentrations,No difference was found
